Measured values taken from the supplement of paper PMC10307832.

Assays:
Experiment in all cases: relative viability (nuclei count vs DMSO), 5 days (fraction); higher = more cells survive
Venetoclax + Alpelisib = compound: CC1(C)CCC(CN2CCN(c3ccc(C(=O)NS(=O)(=O)c4ccc(NCC5CCOCC5)c([N+](=O)[O-])c4)c(Oc4cnc5[nH]ccc5c4)c3)CC2)=C(c2ccc(Cl)cc2)C1 [Venetoclax] + Cc1nc(NC(=O)N2CCC[C@H]2C(N)=O)sc1-c1ccnc(C(C)(C)C(F)(F)F)c1 [Alpelisib] (partner 2 µM)
How it was run: (§1)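 Lung cancer cell lines in 1536-well plates were dosed by pin tool the day after seeding, either with one drug alone or with a fixed anchor-drug dose plus five library-drug doses (not always all listed) in √10 steps. After 5 days, cells were fixed and their nuclei stained in one step (final 0.05% Triton X-100, 1% formaldehyde, 1 ug/ml Hoechst), then counted on 4× images. Relative viability is the nuclei count in treated wells divided by that in vehicle wells. Values are medians of duplicate plates.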

Selumetinib + Pemetrexed = compound: Cn1cnc2c(F)c(Nc3ccc(Br)cc3Cl)c(C(=O)NOCCO)cc21 [Selumetinib] + Nc1nc2[nH]cc(CCc3ccc(C(=O)N[C@@H](CCC(=O)O)C(=O)O)cc3)c2c(=O)[nH]1 [Pemetrexed] (partner 0.2 µM)
How it was run: as §1

Venetoclax = compound: CC1(C)CCC(CN2CCN(c3ccc(C(=O)NS(=O)(=O)c4ccc(NCC5CCOCC5)c([N+](=O)[O-])c4)c(Oc4cnc5[nH]ccc5c4)c3)CC2)=C(c2ccc(Cl)cc2)C1 [Venetoclax]
How it was run: (§2)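 Lung cancer cell lines in 1536-well plates were kept overnight at 37 °C, then pinned with five library-drug doses (not always all listed) spaced by √10 on vehicle-anchored plates. After 5 days without medium change, cells were fixed, permeabilised and Hoechst-stained in one step, imaged at 4×, and nuclei were counted with MetaXpress. Viability is treated-well nuclei divided by vehicle-well nuclei, taken as the median over plates. Plates passed only with control CV below 25% and at least one doubling.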

Selumetinib = compound: Cn1cnc2c(F)c(Nc3ccc(Br)cc3Cl)c(C(=O)NOCCO)cc21 [Selumetinib]
How it was run: as §2

Cell Line | relative viability (Venetoclax + Alpelisib; first compound 0.01 µM) | relative viability (Venetoclax + Alpelisib; first compound 0.03162 µM) | relative viability (Venetoclax + Alpelisib; first compound 0.1 µM) | relative viability (Venetoclax + Alpelisib; first compound 0.3162 µM) | relative viability (Venetoclax + Alpelisib; first compound 1 µM) | relative viability (Selumetinib + Pemetrexed; first compound 0.02 µM) | relative viability (Selumetinib + Pemetrexed; first compound 0.06325 µM) | relative viability (Selumetinib + Pemetrexed; first compound 0.2 µM) | relative viability (Selumetinib + Pemetrexed; first compound 0.6325 µM) | relative viability (Venetoclax; 0.01 µM) | relative viability (Venetoclax; 0.03162 µM) | relative viability (Venetoclax; 0.1 µM) | relative viability (Venetoclax; 0.3162 µM) | relative viability (Venetoclax; 1 µM) | relative viability (Selumetinib; 0.02 µM) | relative viability (Selumetinib; 0.06325 µM) | relative viability (Selumetinib; 0.2 µM) | relative viability (Selumetinib; 0.6325 µM)
HCC-15 | 0.872 | 0.91 | 0.723 | 0.857 | 0.735 | 0.194 | 0.221 | 0.203 | 0.214 | 0.937 | 1.07 | 0.929 | 0.902 | 0.909 | 0.844 | 0.64 | 0.487 | 0.389
HCC-366 | 0.5 | 0.425 | 0.448 | 0.501 | 0.317 | 0.224 | 0.191 | 0.234 | 0.206 | 0.995 | 1.03 | 0.986 | 1.02 | 0.939 | 0.967 | 0.992 | 0.842 | 0.851
LU99A | 0.432 | 0.545 | 0.548 | 0.522 | 0.505 | 0.195 | 0.184 | 0.184 | 0.245 | 1.02 | 1.01 | 0.84 | 0.987 | 0.994 | 1.01 | 1.05 | 0.91 | 0.912
SW 1573 | 0.74 | 0.754 | 0.632 | 0.758 | 0.681 | 0.82 | 0.725 | 0.857 | 0.769 | 0.974 | 0.985 | 0.911 | 0.969 | 0.877 | 0.882 | 0.814 | 0.754 | 0.833
NCI-H1703 | 0.361 | 0.436 | 0.349 | 0.385 | 0.303 |  |  |  |  | 0.869 | 0.953 | 0.917 | 0.99 | 0.788 | 0.974 | 0.816 | 0.9 | 0.909
NCI-H2170 | 0.769 | 0.739 | 0.75 | 0.825 | 0.788 | 0.236 | 0.266 | 0.254 | 0.265 | 0.863 | 0.944 | 0.904 | 0.91 | 0.877 | 0.982 | 0.97 | 0.896 | 0.937
NCI-H2087 | 1.16 | 1.11 | 0.808 | 1.22 | 0.664 | 0.677 | 0.649 | 0.591 | 0.361 | 0.921 | 1.03 | 0.821 | 1.01 | 1.02 | 0.849 | 0.672 | 0.48 | 0.318
LCLC-103H | 1.04 | 0.983 | 1.04 | 1 | 0.974 | 0.437 | 0.479 | 0.5 | 0.519 | 1.06 | 0.999 | 1.04 | 1.01 | 1 | 0.916 | 0.897 | 0.87 | 0.84
NCI-H1755 | 0.968 | 0.912 | 0.842 | 0.962 | 0.893 | 0.467 | 0.409 | 0.428 | 0.509 | 0.996 | 1.04 | 0.977 | 0.995 | 0.967 | 0.952 | 0.963 | 0.916 | 0.922
